Read-outs that look alike come from different tables or passages of the source.
How the values were obtained:
[1] = target: T1, Estrogen Receptor ERα (Homo sapiens, UniProt P03372); test: cell-based; settings: for EC10, ERα (M): 10% of maximum effect of E2; for SR-ScoreERα: SR-Score, sigma k=1, x=5; for Specificity ratio (SRbaseline) SRERα: against baseline cytotoxicity; for ERα activation: at noncytotoxic concentrations; for log(1/EC10) ERα: input of the ToxPi score, values up to 1.00; for Relative effect potency REPERα: relative to BPA; for EC10 / REPBPA / Efficacy %: This Study; for EC10: ERα; for REPBPA: relative estrogenic potency vs BPA
T1 sequence (P03372 311-547 limits assumed): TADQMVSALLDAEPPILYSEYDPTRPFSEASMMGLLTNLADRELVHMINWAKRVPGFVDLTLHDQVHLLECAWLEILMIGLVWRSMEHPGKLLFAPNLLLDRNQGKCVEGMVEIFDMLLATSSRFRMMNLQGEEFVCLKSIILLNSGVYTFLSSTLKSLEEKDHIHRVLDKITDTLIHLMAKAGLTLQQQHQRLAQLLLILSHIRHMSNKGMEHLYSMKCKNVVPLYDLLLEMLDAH
Method in brief: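 ERα-UAS-bla GripTite and PPARγ-UAS-bla β-lactamase reporter cells were seeded and held 24 h at 37 °C, 5% CO₂ before dosing. EC10 values used only concentrations below the IC10 from IncuCyte confluency. Emax% is the log-logistic curve maximum relative to the reference chemical's maximum.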

[2] = Octanol-water partition constant (log Kow) measurement, Sirius T3 potentiometric log P; type: physicochemical; settings: experimental, this study
Method: Physicochemical properties provide input parameters for the baseline toxicity model. Acidity constants (pK a) and octanol–water partition constants of the neutral species (K ow) were measured with a Sirius T instrument from Pion Inc. (Sussex, UK) (Text S1.2 and Table S1). A detailed description of the pK a and K ow measurements can be found in literature. , […]
S1.2: pKa and log Kow measurements […]
titrator (Pion Inc., Sussex, U.K.). […]
UV absorbance. For log Kow measurement, approximately 1 mg of test chemical was added to a sample vial and the measurement was done automatically via the potentiometric log P protocol. Briefly, each compound is titrated thrice in an immiscible biphasic system of octanol and phosphate buffer solution and pH is continuously recorded. The shift in p Ka -values was used to estimate the log Kow values.2, 3 Data processing was performed with Sirius T3 Refine software (version 2.0.0.0.), and the final p Ka and log Kow values were calculated as the average of three titrations. To ensure reproducibility, measurements were conducted on at least two

[3] = target: T1, Estrogen Receptor ERα; test: aCYP oxidation followed by ERα-UAS-bla GripTite assay (TK-Ratio of effect); type: cell-based; settings: for EC10, before oxidation / EC10, after oxidation: ERα; for EC10, after oxidation: after abiotic CYP catalyst; for TKERα: TKERα-Ratio
Method: Cell culture conditions and bioassay protocols including response detection are provided in Text S2.1–2.4 and Table S3. − Cell viability was determined from cell confluency using an IncuCyte S3 Live-Cell Analysis System (Sartorius AG, Essen, Germany) before and after exposure, except for SH-SY5Y cells (live–dead staining with Nuclear Green LcS1 and propidium iodide, Abcam, UK). For metabolic activation experiments, cell viability was assessed using the ToxBLAzer DualScreen Kit (Thermo Fisher Scientific) to capture the remaining toxicity in ERα-UAS-bla GripTite after treatment with the aCYP catalyst (details in Text S2.4). […]
The TK-Ratio method was used to evaluate the impact of abiotic CYP oxidation on the potency of tested compounds. […]
For experiments with the preceding aCYP activation, ERα cell viability was additionally calculated from the readout of the ToxBLAzer reagent. The ToxBLAzer assay was conducted following the manufacturer's instructions (Thermo Fisher, Waltham, MA, U.S.).13 Fluorescence intensity was recorded at the start of the assay ( Fwavelength(0h)) and after a 2-hour incubation at […]
Cell viability was assessed based on the red fluorescence signal at 665 nm, applying eq. S11 for normalization.
Cell viability = F665nm(2h, sample)-F665nm(0h, average cell-free) (S11) F665nm(2h, average unexposed)-F665nm(0h, average cell-free) […]
the specific endpoint to avoid artifacts from cytotoxicity burst. 15
S2.5: Concentration-response curves (CRCs)
To avoid bias from cytotoxicity burst at higher concentrations, all concentrations exceeding the IC10 for cytotoxicity were excluded in the CRC modeling of effects but otherwise cytotoxicity and effects were fitted with the same model equations (response stands for cytotoxicity or effect). For ERα, AhR, ARE and PPARγ preferably a linear model was fitted to the linear portion of CRC up to maximum 30% effect (eq. S12),16 but in some cases it was necessary to choose a sigmoidal log-concentration-response model, specifically a log-logistic model (eq. S13), to derive effect concentrations and cytotoxicity. For mitochondrial toxicity and neurotoxicity, the […]
are not reporter gene assays. Common practice when using log-logistic models, e.g., the model implemented in tcpl package in R,17, 18 is that the minima and maxima are also fitted and only median effect concentrations AC50 are derived. […]
concentrations (EC10) for both linear and log-sigmoidal CRCs to allow absolute comparisons at the same effect level and for TR and SR -analysis. This was done using the AutomatedBioassayScreening19 published by Braun et al.,20 which also included an algorithm to choose the best model between eq. S12 and eq. S13.
Response (%) = slope × C (S12) […]
logEC =logEC − 1 ∙log (max−min − 100%) (S14)

[4] = against experimental cytotoxicity
[5] = Bioassay ERα, dosing range all, in M
[6] = Bioassay ERα, dosing range all, linear model fit, in M
[7] = Bioassay ERα, dosing range all, log-logistic model fit
[8] = Bioassay ERα, dosing range all, linear model fit

| Compound | EC10, ERα (M) [1] | SR-ScoreERα [1] | ERα activation [1] | EC10, ERα ([1]; effect) [nM] | log(1/EC10) ERα [1] | log Kow used [2] | EC10, before oxidation ([3]; Table S10, in M) | logEC10 [1, 7] | EC10 ([1]; in M) | REPBPA [1] | EC10, after oxidation ([3]; Table S10, in M) | TKERα ([3]; Table S10) | further results |
| --- | --- | --- | --- | --- | --- | --- | --- | --- | --- | --- | --- | --- | --- |
| O=S(=O)(c1ccc(O)cc1)c1ccccc1O [2,4-BPS, 2,4'-Dihydroxydiphenyl sulfone] | 1.98 × 10^–5 M | 1.00 | did not activate ERα at noncytotoxic concentrations | 19800 | 0.60 | 1.90 | 3.59E-05 |  |  |  |  |  | times less potent than BPS (ERα) [1]: 10; REPBPA,ERα (relative effect potency in relation to BPA) ([1]; EC10,BPA/EC10,BPx): 0.019; EC10, linear transformed ([1]; ERα bioassay, dosing range all, in M): 3.59E-05; EC10, linear ([1]; ERα bioassay, dosing range all, linear model, in M): 5.15E-05; logEC10 ([1]; ERα bioassay, dosing range all, log-logistic model): -4.70; Specificity ratio (SRbaseline) SRERα [1]: 27.68; Specificity ratio (SRcytotoxicity) SRERα [1, 4]: 21.81; Emax ([1]; read-out: Emax%ERα, maximum efficacy relative to E2): 19%; Relative effect potency REPERα [1]: 0.0187 |
| Oc1ccc(Sc2ccc(O)cc2)cc1 [BPT, 4,4'-Thiodiphenol] | 7.27 × 10^–7 M | 1.00 |  | 727 | 0.78 | 3.29 | 2.87E-07 | -6.54 | 7.27E-07 | 5.09E-01 | 1.15E-06 | 0.2502 | EC10, linear transformed [1, 5]: 2.87E-07; EC10, linear [1, 6]: 7.27E-07; EC10, after oxidation ([3]; Table S11, in M): 2.70E-06; EC10, before oxidation ([3]; Table S11, in M): 2.28E-06; TKERα ([3]; Table S11): 0.85 |
| O=C(OCc1ccccc1)c1ccc(O)cc1 [BzPB, Benzyl 4-hydroxybenzoate] | 3.02 × 10^–6 M | 1.00 |  | 3020 | 0.70 | 3.30 | 3.07E-06 | -5.52 | 3.02E-06 | 1.23E-01 | 4.95E-06 | 0.6192 | EC10, linear transformed [1, 5]: 3.07E-06; EC10, linear [1, 6]: 1.96E-06; Efficacy % [1]: 53.46%; Specificity ratio (SRbaseline) SRERα [1]: 5.49; Specificity ratio (SRcytotoxicity) SRERα [1, 4]: 13.93; Emax ([1]; read-out: Emax%ERα): 53%; Relative effect potency REPERα [1]: 0.12 |
| Oc1ccc(C2(c3ccc(O)cc3)CCCCC2)cc1 [BPZ, 1,1'-Bis(4-hydroxyphenyl)cyclohexane] |  |  |  |  |  | 4.64 |  |  |  |  |  |  |  |
| CC(C)(c1ccc(O)cc1)c1ccc(O)cc1 [BPA, 4,4'-(Propane-2,2-diyl)diphenol, reference compound] | 3.70 × 10^–7 M | 1.00 |  | 370 | 0.82 | 4.25 | 3.70E-07 |  | 3.70E-07 | 1.00E+00 | 4.48E-07 | 0.827 | EC10, ERα [1]: 370 nM; EC10, linear transformed ([1]; Bioassay ERα, dosing range high, in M): 1.46E-07; EC10, linear ([1]; Bioassay ERα, dosing range high, linear model fit, in M): 1.81E-07; logEC10 ([1]; Bioassay ERα, dosing range high, log-logistic model fit): -7.06; EC10, linear transformed ([1]; Bioassay ERα, dosing range low, in M): 3.70E-07; EC10, linear ([1]; Bioassay ERα, dosing range low, linear model fit, in M): 2.69E-07; logEC10 ([1]; Bioassay ERα, dosing range low, log-logistic model fit): -6.43; Efficacy % [1]: 37.53%; Specificity ratio (SRbaseline) SRERα [1]: 31.86; SRcytotoxicity (ERα) ([1]; human, 24 h): 115; Specificity ratio (SRcytotoxicity) SRERα ([1]; human, 24 h): 115.28; times less potent than the reference estradiol (E2) ([1]; ratio of EC10): 18700; Emax ([1]; read-out: Emax%ERα): 38%; Relative effect potency REPERα [1]: 1.00; estrogenic activity after aCYP oxidation [3]: remained unchanged or decreased; EC10, after oxidation ([3]; Table S11, in M): 3.06E-07; EC10, before oxidation ([3]; Table S11, in M): 3.74E-07; TKERα ([3]; Table S11): 1.22 |
| Cc1ccc(S(=O)(=O)NC(=O)Nc2cccc(OS(=O)(=O)c3ccc(C)cc3)c2)cc1 [Pergafast, N-(p-toluenesulfonyl)-N'-(3-(p-toluenesulfonyloxy)phenyl)urea] |  |  | did not activate ERα at noncytotoxic concentrations |  |  | 4.11 |  | no effect |  |  |  |  | EC10, linear [1, 8]: no effect |
| CC(c1ccc(O)cc1)c1ccc(O)cc1 [BPE, 4,4′-Ethylidenbisphenol] |  |  |  |  |  | 4.05 |  |  |  |  |  |  |  |
| Oc1ccc(C(c2ccc(O)cc2)(C(F)(F)F)C(F)(F)F)cc1 [BPAF, 4,4'-(1,1,1,3,3,3-Hexafluoropropane-2,2-diyl)diphenol] |  |  |  |  |  | 4.72 |  |  |  |  |  |  |  |
| CC(C)(c1cc(Br)c(O)c(Br)c1)c1cc(Br)c(O)c(Br)c1 [TBBPA, 3,3',5,5'-Tetrabromobisphenol A] |  |  |  |  |  | 5.91 |  |  |  |  |  |  |  |
| CC(c1ccccc1)(c1ccc(O)cc1)c1ccc(O)cc1 [BPAP, 4,4'-(1-Phenylethylidene)bisphenol] |  |  |  |  |  | 5.06 |  |  |  |  |  |  |  |
| C=CCOc1ccc(S(=O)(=O)c2ccc(O)cc2)cc1 [BPS-MAE, 4-[[4-(Allyloxy)phenyl]sulfonyl]phenol] | 1.41 × 10^–5 M | 1.00 |  | 14100 | 0.62 |  | 1.26E-05 | -4.90 | 1.41E-05 | 2.63E-02 | 1.28E-05 | 0.9842 | EC10, linear transformed [1, 5]: 1.26E-05; EC10, linear [1, 6]: 1.41E-05 |
| O=S(=O)(c1ccc(O)cc1)c1ccc(OCc2ccccc2)cc1 [BPS-MPE, 4-[4-(benzyloxy)benzenesulfonyl]phenol] |  |  | did not activate ERα at noncytotoxic concentrations |  |  | 4.28 |  | no effect |  |  |  |  | EC10, linear [1, 8]: no effect |
| Cc1ccc(S(=O)(=O)NC(=O)Nc2ccc(Cc3ccc(NC(=O)NS(=O)(=O)c4ccc(C)cc4)cc3)cc2)cc1 [BTUM, 4,4'-Bis(p-tolylsulfonylureido)diphenylmethane] |  |  | did not activate ERα at noncytotoxic concentrations |  |  |  |  | no effect |  |  |  |  | EC10, linear [1, 8]: no effect; EC10, before oxidation ([3]; Table S10): no effect; EC10, after oxidation ([3]; Table S10): no effect; outcome of aCYP experiments ([3]; both experimental setups): inconclusive results |
